Reference: patent US7018456B2, “Phthalocyanine compound, water-base ink composition and colored material” (Nippon Kayaku Kabushiki Kaisha, priority 2002, dated 2006)

Assay: Water-solubility of the phthalocyanine compound
Type: physicochemical
Details: at the ordinary temperature
Protocol: 300 parts of wet cake containing 53.6 parts of tetramino copper phthalocyanine (0.085 mol) were suspended in 360 parts of water in a four-neck flask equipped with a condenser, followed by heating to 60° C. with stirring, dropping 9.5 parts of acetic anhydride (0.093 mol) at the same temperature and stirring at the same temperature for 5 hours. Successively 0.2 parts of hydroquinone and 95.4 parts of acrylic acid […] were added, followed by heating to 80° C. and stirring with keeping the same temperature for 12 hours. Judging from the reaction, mixture of several compounds though it is, the reaction product is found to correspond to a compound which comprises tetramino phthalocyanine having on average one introduced acyl group (acetylamino) and three introduced carboxyethyl per molecule, namely the desired monoacetylamino(2-tricarboxyethylamino) copper phthalocyanine.

For “monoacetylamino(2-tricarboxyethylamino) copper phthalocyanine [Example 5]”, the water-solubility was “about 10 % by mass”.
